From patent publication US20230201149A1, “METHODS OF ANTIPATHOGENIC TREATMENT” (priority 2020, published 2023)
Read-outs that look alike come from different tables or passages of the source.

Legend:
severe COVID patients = details: cited from earlier work
[1] = system: COVID-19 coronavirus in human lung cells; experiment: Antiviral potency in human lung cells; type: cell-based
Experimental: Earlier research of Nafamostat indicated it would not have sufficient concentration in the plasma to cause death of the virus. This was based on trialing drugs in monkey kidney cells. It was determined it would be more realistic to trial the drugs in human lung cells. The results were dramatic in that vastly different effects resulted.

COVID-infected cells = details: cited from earlier work
[2] = system: COVID-19 coronavirus in human lung cells; details: read-out: 50% kill rate IC50; cited from earlier work
ARDS patients = details: intravenous, P<0.001; cited from earlier work
[3] = Alzheimer patients, 200 microg/day, cited from earlier work
COVID-19 = details: cited from earlier work
COVID-19 patients [4] = details: cited from earlier work; for inflammatory markers (CRP and ferritin): during IV N-acetylcysteine administration
[5] = in vivo, cited from earlier work
SARS-Cov-2 [6] = details: replication of SARS-Cov-2, cited from earlier work
SARS-Cov-2 [7] = experiment: Inhibition of replication of SARS-Cov-2; type: cell-based
[8] = elderly subjects, six months of 45 mg zinc/day as a gluconate; cited from earlier work
COVID-19 patients [9] = details: 50 treated patients, cited from earlier work

Molecule: Heparin
- benefit in less severe cases (severe COVID patients; less severe cases): no benefit
- death rate (severe COVID patients; most severe cases, reduced from 64%): 40%

Molecule: N=C(N)c1ccc2cc(OC(=O)c3ccc(N=C(N)N)cc3)ccc2c1 [Nafamostat]
- decrease of IC50, human lung cells vs monkey kidney cells [1]: 6000 fold
- potency relative to Remdesivir ([1]; human lung cells): 600 fold
- COVID-induced cytopathogenic effect (CPE) (COVID-infected cells): inhibits
- effect on the virus replication cycle (COVID-infected cells; high levels of double-strand RNA in treated infected cells): limited effects
- IC50 [2]: 2.2 nM

Molecule: [Se] [selenium]
- drop in IL-1beta, R value (ARDS patients): −0.624
- drop in IL-6, R value (ARDS patients): 0.642
- serum high sensitivity C-reactive protein ([3]; P<0.001): reduced
- total glutathione ([3]; P=0.001): significantly increased

Molecule: Aprotinin
- increase of effectiveness by omeprazole (COVID-19): 2.7 fold

Molecule: CC(=O)N[C@@H](CS)C(=O)O [N-acetylcysteine]
- bilirubin (total and direct) (COVID-19 patients [4]; G6PD-deficient patient, IV NAC 600 mg every 12 h for six days): sustained reduction
- ALT (COVID-19 patients [4]; G6PD-deficient patient, after IV NAC 30,000 mg over 24 h for two days, peak before 263): 100 U/L
- AST (COVID-19 patients [4]; G6PD-deficient patient, after IV NAC 30,000 mg over 24 h for two days, peak before 338): 62 U/L
- NLR (COVID-19 patients [4]; G6PD-deficient patient, sustained after the first dose): decrease
- inflammatory markers (CRP and ferritin) (COVID-19 patients [4]): significant overall reduction
- inflammatory markers (CRP and ferritin) (COVID-19 patients [4]; listed as NAC): significantly reduced
- patients eventually discharged (COVID-19 patients [4]; of ten patients): Eight
- lung functions (COVID-19 patients [4]; ten respirator-dependent COVID-19 patients): improved
- bioavailability ([5]; po): 6-10%
- half-life, reduced N-acetylcysteine [5]: about 2 h
- half-life, total N-acetylcysteine [5]: about 6 h

Molecule: Cc1c(O)cccc1C(=O)N[C@@H](CSc1ccccc1)[C@H](O)CN1C[C@H]2CCCC[C@H]2C[C@H]1C(=O)NC(C)(C)C [nelfinavir, Nelfinavir]
- EC50 (SARS-Cov-2 [6]; read-out: effective concentration for 50% inhibition (EC50)): 1130 nM
- EC90 (SARS-Cov-2 [6]; read-out: effective concentration for 90% inhibition (EC90)): 1760 nM
- trough and peak serum concentration relative to EC50 (SARS-Cov-2 [7]): three to six times higher

Molecule: [Zn] [Zinc]
- concentration of plasma hsCRP, IL-6, MCP-1, VCAM-1, secretory phospholipase A2, MDA+HAE [8]: decreases

Molecule: C=C1CC[C@H](O)C/C1=C/C=C1\CCC[C@]2(C)[C@@H]([C@H](C)CCCC(C)(C)O)CC[C@@H]12 [calcifediol]
- patients requiring admission to the ICU (COVID-19 patients [9]; oral, untreated 50%): 2%
- deaths (COVID-19 patients [9]): none died
